The values below come from patent US11458094B2, “Compositions and methods for treating pulmonary edema or lung inflammation” (priority 2018, dated 2022).

For one data set, the system named is Akt. The experiment in a line: Akt phosphorylation (Ser473) in RLE-6TN cells under hyperoxia. The conditions noted are these: hyperoxia 24 hours, T3 added for 20 minutes, vs room air control and hyperoxia alone. The format is cell-based, rat. As for the experimental part: (§1) The cells were lysed in lysis buffer containing 20 mM Tris·HCl (pH 7.5), 150 mM NaCl, 1 mM EDTA, 1 mM EGTA, 1% (vol/vol) Triton X-100 with protease inhibitors (1 mM PMSF, 2 μg/ml pepstatin, and 10 μg/ml each of aprotinin and leupeptin), and phosphatase inhibitors (2.5 mM sodium pyrophosphate, 1 mM β-glycerophosphate, and 1 mM Na3VO4). The lysate was drawn 10 times through a 25-gauge needle on ice for further lysis and then was centrifuged at 13,000 rpm for 15 minutes at 4° C. The supernatant was collected, and the protein concentrations were determined by use of the BCA protein assay kit (Sigma-Aldrich, St. Louis, Mo.). Immediately after this step, equal amounts of protein were subjected to Western blotting analysis.

The conditions of data set [1]: single oral dose of 50 micrograms; cited from earlier work.
Data set [2] has as its system hyperoxia-induced lung injury. The experiment in a line: Hyperoxia-induced lung injury in rats: bronchoalveolar lavage protein and cell number. The conditions noted are these: ip T3. The format is in vivo, Sprague Dawley rats. The text has this:
(§2) All experimental protocols for animal treatments were approved by the University of Minnesota Institutional Animal Care and Use Committee. […] The room-air control rats were kept in the University animal housing facility. At the end of hyperoxic exposure, rats were sacrificed by intraperitoneal pentobarbital injection, and the lungs were harvested; the right lobes were allocated for histopathology, measurement of lung tissue myeloperoxidase (MPO) activity and wet-to-dry weight ratio. The left lobes underwent bronchoalveolar lavage (BAL) to determine BAL protein concentrations and differential cell counts.
Bronchoalveolar lavage (BAL) of the left lung was performed using a modification of a method previously described (Pace et al., Exp Lung Res 35:380-398, 2009). Briefly, 4 mls of ice-chilled 1× PBS (pH 7.4) were instilled into the left lung, withdrawn, and re-instilled two subsequent times prior to analysis of the lavage fluid. The retrieved BAL fluid was centrifuged at 1500 rpm for 10 minutes to remove cells and debris. The cell pellet was resuspended in 1 ml of 1× PBS (pH 7.4) and total cell number was counted using a hemocytometer. BAL cytospin preparations were stained using the Hema3 stain kit (Thermo Fisher Scientific, Inc., Waltham, Mass.) to identify the nucleated cells. The protein concentration was determined on the supernatants of BAL fluid using a standard BCA assay (Sigma-Aldrich, St. Louis, Mo.).

Data set [3] deals with rat lung mucosa and airspaces. Particulars: in vivo.
Protocol: (§4) Therefore, the liothyronine sodium and the vehicle were adjusted to neutral pH (6.0-8.0) with sterile 1.0 N HCl (Sigma-Aldrich, St. Louis, Mo.) added aseptically in a biosafety cabinet prior to intratracheal instillation into animals. Using aseptic technique, vials of liothyronine sodium were opened and the entire contents were transferred into sterile 1.5 mL Eppendorf tubes. 80-90 μL of 1.0 N HCl was added to the tube and gently vortexed, and the pH was measured using pH test strips (pH 4.5 to 10.0, Ricca Chemical Co., Arlington, Tex.). Additional HCl was titrated in gradually, as needed, until the pH was in the desired range. […] This solution was stored at 4° C. and used for up to 26 hours after pH adjustment procedure. […] The vehicle was also adjusted to neutral pH (6.0-8.0) with 1.0 N HCl as described above. Using aseptic technique the vehicle was filter sterilized and aliquoted into 21 sterile disposable tubes (5 mL each) and stored at 4° C., and a new tube was opened for each day of use. Normal Saline (0.9% Sodium Chloride Injection USP, B. Braun Medical, Inc., Bethlehem, Pa.), was stored at room temperature. A new package was opened for each day of use.
The nature of data set [4]: Preliminary dose-finding studies, 3.0 μg neutral pH T3 intravenous vs intratracheal. The format is in vivo, rats.
Data set [5] relates to myeloperoxidase (MPO) activity in lung tissue. Put plainly: Hyperoxia-induced lung injury in rats: lung myeloperoxidase (MPO) assay. Particulars: 60 hours hyperoxia, ip T3. The format is in vivo, Sprague Dawley rats.
Source text: as §2
To quantify the neutrophil activity in the lung, MPO activity was assayed as previously described (Abraham et al., J Immunol 165:2950-2954, 2000). Lung tissues without prior lavage were frozen in liquid nitrogen, weighed, and stored at −86° C. The lungs were homogenized for 30 seconds in 1.5 ml 20 mM potassium phosphate, pH 7.4, and centrifuged at 4° C. for 30 minutes at 40,000×g. The pellet was resuspended in 1.5 ml 50 mM potassium phosphate, pH 6.0, containing 0.5% hexadecyltrimethylammonium bromide, sonicated for 90 seconds, incubated at 60° C. for two hours, and centrifuged at 14,000 rpm for 30 minutes at 4° C. The supernatant was assayed for peroxidase activity corrected to lung weight. MPO was expressed as activity per gram of lung tissue.

A further data set relates to Nrf2. Put plainly: Western blot of Nrf2 (total cellular and nuclear) in RLE-6TN cells under hyperoxia. It is filed as cell-based, rat. The conditions noted are these: 24 hours hyperoxia, T3 10^−6 M.
Source text: FIG. 9. […] The cells were then collected for Western Blotting analysis. (A) Cellular total protein of Nrf2. (B) Nuclear Nrf2.
FIG. 12. T3-induced increase in Nrf2 and HO-1 protein via PI3K in hyperoxia. (A) Western Blot and densitometry data for total Nrf2. (B) Western Blot and densitometry data for cytoplasmic Nrf2. (C) Western Blot and densitometry data for nuclear Nrf2.
Nuclei were extracted with NE-PER nuclear and cytoplasmic extraction reagents kit (Thermo Fisher Scientific, Inc., Waltham, Mass.) following the manufacturer's instruction.
as §1
Background: A western blot detects proteins with antibodies after separation by electrophoresis.

For data set [6], the system named is rat lung mucosa and airspaces. The experiment in a line: Preliminary studies: intratracheal instillation of liothyronine sodium without pH adjustment. Particulars: rats, pH of >10.0 as supplied commercially.
Protocol: as §4
Data set [7] in a line: Toxicity phase: intratracheal instillation once daily for five consecutive days (GLP safety study). It is filed as in vivo, Sprague-Dawley rats. The method, then: Safety studies are described in Example 3, below. In a safety study conducted in compliance with Good Laboratory Practices (GLPs), 0.3 mL (300 μl) was administered to rats weighing 250-350 grams via intratracheal instillation daily for five consecutive days. […] The calculated dose based on lung weight was about 1.57 μg/g wet lung weight.
This study was conducted using both male and female Sprague-Dawley rats (Envigo, Huntingdon, United Kingdom). Evaluation of the safety of the tracheal route of instillation for liothyronine sodium injection in human clinical trials can be accomplished in this species at appropriate dose levels. Furthermore, responses to thyroid hormone in rats are similar to responses in humans, and the choice of the rat model is based in large part on pharmacologic data from studies of thyroid hormone and associated receptors and physiological responses in rat lung. The University of Minnesota is accredited by the Association for the Assessment and Accreditation of Laboratory Animal Care, International (AAALAC) and registered with the United States Department of Agriculture to conduct research in laboratory animals. Animal studies conformed to NIH guidelines (Guide for the Care and Use of Laboratory Animals. NIH publication No. 86-23. Revised 1985). The protocol was reviewed and approved, as applicable, by the Institutional Animal Care and Use Committee (IACUC) at the University of Minnesota for compliance with regulations prior to study initiation or implementation of amended activities.
Sixty animals (plus two spare animals/sex/group) were anesthetized and dosed via intratracheal instillation of test or control materials for five consecutive days. On the day after the last dose a terminal blood collection was performed for clinical pathology, after which animals were euthanized and a gross examination of all organs was performed by a board certified veterinary pathologist. Select tissues were collected for histopathology. […] Terminal blood collection was performed at two designated time points per animal up to 24 hours after administration for toxicokinetic evaluation. TK animals were euthanized without further evaluation after the final blood collection. All animals were acclimated for a minimum of seven days prior to the dosing procedure. Animals underwent baseline observations and examinations prior to the initiation of the study, and clinical observations and body weight monitoring were performed throughout the in-life portion of the study. All animals received the same dose volume (0.3 mL) of either test or control materials. This maximum feasible dose (MFD) is constrained by the maximum volume that can be safely and reproducibly (over five days) instilled into lungs of rats weighing 250 g to 350 g, which was determined in preliminary toxicology studies to be 0.3 mL. Actual doses delivered are reported as both μg/kg body weight and μg/gm wet lung weight. The toxicity phase animals were 72-135 days of age at the time of initial dosing. Males weighed between 256.52 g and 307.50 g with a mean±standard deviation of 286.74±11.77 g, and females weighed between 250.46 g and 299.01 g with a mean±standard deviation of 260.64±10.34 g. The TK phase animals were 68-144 days of age at the time of initial dosing. Males weighed between 261.23 g and 316.19 g; females weighed between 250.06 g and 280.32 g.
Test and control materials were drawn into dosing syringes using aseptic technique. Using a 18G needle, 0.5 mL of air was drawn into a 1 cc syringe followed by 0.3 mL (300 μL) of the solutions. Animals were anesthetized with a combination of ketamine, 40 mg/kg to 200 mg/kg, and xylazine, 1 mg/kg to 7 mg/kg intraperitoneally (IP), to effect. The dose was adjusted daily, as needed, based on individual animal response and recovery. Depth of anesthesia was evaluated by toe pinch, and eye lubricant was applied to the eyes. […]

For the next data set, the system named is HO-1. The experiment in a line: Western blot of HO-1 in RLE-6TN cells under hyperoxia. The conditions noted are these: T3 10^−6M. The format is cell-based, rat. As for the experimental part: (§3) FIG. 10. HO-1 Upregulation is required for T3-increased RLE-6TN cell survival in hyperoxia. […] The cells were then collected for Western Blot analysis. (B) The cells were incubated in 21% O2 and 5% CO2 for 72 hours in the present of HO-1 inhibitor Tin Protoporphyrin IX(10^-6M) tinT3 (10^−6M). […] Cell viability is assessed with trypan blue. The number of viable cells under specific conditions is presented as a percentage of the cell number related to hyperoxia alone. Data are mean±s.d. of three independent experiments with *=P<0.05; **=P<0.01.
as §1

Data set [8] concerns hyperoxia-induced lung injury. Put plainly: Hyperoxia-induced lung injury in rats: lung histology and MPO immunostaining. It is filed as in vivo, Sprague Dawley rats. The method, then: FIG. 17. […] Immunostaining was performed with primary: anti-MPO antibody. Black dots represent MPO-positive cells.
FIG. 18. […] (A) Control: room air; (B) Hyperoxia; (C) Hyperoxia+T3.
as §2
Lung tissue was removed and inflation fixed at 20 cm water pressure in 4% paraformaldehyde, paraffin embedded, cut as 5 micron sections and mounted onto poly-L-lysine slides. Sections were deparaffinized in xylene, rehydrated through a graded alcohol series in methanol, and placed in a 98° C. water bath for 30 minutes in citrate buffer (pH 6.0) for antigen retrieval. After quenching with 0.3% hydrogen peroxide in PBS, sections were incubated in normal serum for 30 minutes and for 15 minutes each with Avidin/Biotin Blocking Kit (Vector Laboratories, Inc., Burlingame, Calif.). […]

Another data set deals with RLE-6TN cells. Put plainly: RLE-6TN cell survival and recovery under hyperoxia, viable cells by trypan blue exclusion. The format is cell-based, rat. As for the experimental part: FIG. 7. […] The cells were cultured in DMEM/F12 with 10% FBS in 21% O2 and 5% CO2 overnight. […] The viable cells are counted immediately after 72-hour hyperoxia exposure. Cell viability is assessed with trypan blue. The amount of viable cells under specific conditions is presented as a percentage of the cell number from hyperoxia alone. Data are mean±s.d. of four independent experiments with *=P<0.05; **=P<0.01.
FIG. 8. […] In both (A) and (B), the number of viable cells under specific conditions is presented as a percentage of the cell number related to hyperoxia alone in the same experiment. Data are mean±s.d. of four independent experiments with *=P<0.05; **=P<0.01.
as §3
FIG. 11. PI3K inhibitor wortmannin blocked T3-induced cell survival in hyperoxia. […] Cell viability is assessed with trypan blue. The number of viable cells under specific conditions is presented as a percentage of the cell number related to hyperoxia alone. Data are mean±s.d. of four independent experiments with *=P<0.05; **=P<0.01.
At the end of the hyperoxia exposure period, the viable cells were counted by trypan blue dye exclusion.

`N[C@@H](Cc1cc(I)c(Oc2ccc(O)c(I)c2)c(I)c1)C(=O)O` [T3, triiodothyronine]: the “phosphorylation of Akt at Ser473” value with Akt is reported as “augmented”. In data set [1], the mean half-life was 22.5 h. For the same compound, the “hyperoxic increase in BALF protein concentration” value in data set [2] (48 hour hyperoxia) and in data set [2] (60 hour hyperoxia) was “attenuated significantly” throughout. In addition, the “BALF cell numbers vs hyperoxia alone” value in [2] (48 hours hyperoxia) and in data set [2] (60 hours hyperoxia) was “significantly reduced” each time. Further, the “toxicity to rat lung mucosa and airspaces” value in [3] was “extremely toxic”. Besides, the “acute effects on physiologic parameters (respiratory rate, O2 saturation, heart rate)” value in data set [4] (five days of intratracheal delivery of 3.0 μg neutral pH T3) and in data set [4] (single intravenous delivery of 3.0 μg neutral pH T3) was “no acute effects” each time. Besides, the “hyperoxia-induced lung MPO activity” value in [5] is on record as “significantly reduced”. Also, the “nuclear Nrf-2 protein expression” value with Nrf2 is “significantly increased”. Also, in the data set on Nrf2, the “total cellular Nrf-2 protein expression” value is “significantly increased”. Further, the “tolerance of intratracheal instillation” value in data set [6] is listed as “do not tolerate”. Moreover, in data set [7] (T3 females, toxicity phase), the “body weight at terminal euthanasia vs pre-dose” value is “weighed slightly less than their pre-dose weight”. In addition, the “animals that died after dose administration” value in data set [7] (T3 test group, toxicity phase, judged not test article related) is reported as “two”. Moreover, in data set [7] (during the course of the study), the clinical observations result is “No adverse T3 related clinical observations”. For the same compound, the “regain of body weight” value in data set [7] (female rats, toxicity phase, vs males or control groups) was “did not regain body weight at the same rate”. For the same compound, the hematology parameters entry in data set [7] (male rats) was “no statistical or clinically significant changes”. Also, the “treatment-related macroscopic or microscopic findings in end organs” value in data set [7] (toxicity phase rats) was “no macroscopic or microscopic findings”. Moreover, in data set [7] (toxicity phase rats, five days intratracheal), the “organ weight of the lungs” value is on record as “no differences”. Also, in the data set on HO-1, the “total cellular protein of HO-1” value was “significantly enhanced”. In addition, the “MPO-positive cells in the lungs vs hyperoxia without T3” value in data set [8] (95% oxygen 60 hours, T3-injected) is “fewer MPO-positive cells”. For the same compound, the “lung morphology (histopathology)” value in data set [8] (60 hours hyperoxia, systemic T3 supplementation) is “virtually normal lung morphology”.
For `C=Cc1c2[n-]c(c1C)/C=c1\[n-]/c(c(C)c1C=C)=C\c1[n-]c(c(CCC(=O)O)c1C)C=c1[n-]/c(c(C)c1CCC(=O)O)=C\2.[Sn+4]` [Tin protoporphyrin, Tin Protoporphyrin IX], the “AT2 cell number in room air” value with RLE-6TN cells (21% O2 72 hours, 10^-6M) is reported as “no effect”. In addition, the “effect on T3-caused increase in cell survival in hyperoxia” value in the data set on RLE-6TN cells (90% O2 72 hours, with T3 10^−6M, inhibitor 10^-6M) was “blocked”.
On to `NC(Cc1ccc(Oc2cc(I)c(O)c(I)c2)c(I)c1)C(=O)O` (centres unmarked) [rT3], for which the “cell survival under hyperoxia” value with RLE-6TN cells (90% oxygen 72 hours, 10^−6M) is “no role in cell survival”.
